# Test results reported in patent US5872115A, “2-ureido-benzamide derivatives” (Grelan Pharmaceutical Co. Ltd., priority 1995, dated 1999).
# Where two headings read alike, the source gives them in different places.
# Legend:
# [1] = target: T1, THP-1 microsomal ACAT (Homo sapiens, UniProt P35610); assay: In vitro test using THP-1 microsome (ACAT inhibition); assay type: biochemical
# T1 construct: ACAT enzyme fraction was prepared from microsome of human leukemia THP-1 cell; endogenous in cells; host or cells: THP-1 (human leukemia), microsomes
# T1 sequence (P35610 1-550): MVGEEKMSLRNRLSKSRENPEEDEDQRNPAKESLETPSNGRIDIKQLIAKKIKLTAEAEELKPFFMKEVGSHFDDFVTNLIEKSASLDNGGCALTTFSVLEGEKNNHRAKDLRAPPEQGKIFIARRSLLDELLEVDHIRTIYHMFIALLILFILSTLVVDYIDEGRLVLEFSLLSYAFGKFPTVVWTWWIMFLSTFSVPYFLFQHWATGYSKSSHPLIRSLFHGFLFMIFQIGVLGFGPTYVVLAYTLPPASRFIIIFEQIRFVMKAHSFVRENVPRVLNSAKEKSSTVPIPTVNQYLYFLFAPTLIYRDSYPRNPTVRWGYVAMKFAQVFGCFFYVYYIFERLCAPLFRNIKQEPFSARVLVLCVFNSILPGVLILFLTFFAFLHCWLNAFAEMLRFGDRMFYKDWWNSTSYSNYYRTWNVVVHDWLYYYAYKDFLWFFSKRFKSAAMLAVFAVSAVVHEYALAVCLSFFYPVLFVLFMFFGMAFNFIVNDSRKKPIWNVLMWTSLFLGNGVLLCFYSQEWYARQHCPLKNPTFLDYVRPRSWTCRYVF
# Protocol: (4) In Vitro Test Using THP-1 Microsome
# Then, the reaction was initiated by the addition of 5 nmoles of labeled [^14 C] oleoyl-CoA dissolved in 20 μl of said phosphate buffer solution containing BSA and the reaction was stopped by the addition of 20 μl of 2N HCl after 10 minutes. [^14 C] cholesterol-oleate formed was separated by thin-layer chromatography and the radioactivity was counted with liquid scintillation counter.
# ACAT inhibitory activities of the test compounds were shown as IC50 values.
# [2] = target: T1, THP-1 microsomal ACAT; assay: Bioavailability assessment of ACAT inhibitors by their ex vivo activity (serum of dosed mice on THP-1 microsomal ACAT); assay type: in vivo
# Protocol: (5) Bioavailability Assessment of ACAT Inhibitors by Their <<ex vivo>> Activity
# […] Blood samples were collected 0.5, 1, 1.5, 2, 6 hour postdose. Serum were harvested after gentle centrifugation and stored at -20.
# The following day, 10 μl serum were preincubated at 37 for 5 minutes with 20 μl of THP-1 microsomal ACAT and then incubated 10 minutes with 20 μl of radiolabeled oleoyl-CoA as described above in method (4). The serum is used instead of the drug solution.
# ACAT inhibitory activities of the test compounds were shown as maximum inhibition percentages (Imax).
# [3] = THP-1 microsome, read-out: IC50 THP1 microsome
# [4] = female mice, 30 mg/kg per os, 1% CMC-Na 0.2% Tween 80, maximum inhibition by serum
smiles,measurement,setting,value
"CCCCCCCNC(=O)Nc1ccc(N2CCOCC2)cc1C(=O)NCC1CCN(C(c2ccccc2)c2ccccc2)CC1 [Example 82, 2-(N'-n-Heptylureido)-5-(morpholin-4-yl)-N-[(1-diphenylmethylpiperidin-4-yl)methyl]-benzamide]",IC50,[1]; [3],100 nM
same,Imax Ex vivo,[2]; [4],50.15%
CCCCNC(=O)Nc1ccc(SC)cc1C(=O)NCC1CCN(C(c2ccccc2)c2ccccc2)CC1 [Example 73],IC50,[1]; [3],20 nM
same,Imax Ex vivo,[2]; [4],38.17%
"CCCCCCCNC(=O)Nc1ccc(N(C)C)cc1C(=O)NCC1CCN(C(c2ccc(Cl)cc2)c2ccc(Cl)cc2)CC1 [Example 92, 2-(N'-n-Heptylureido)-5-dimethylamino-N-[[1-bis(4-chlorophenyl)methylpiperidin-4-yl]-methyl]benzamide]",IC50,[1]; [3],300 nM
"CCCCCCCNC(=O)Nc1ccc(N(C)C)cc1C(=O)NCC1CCN(C(c2ccc(OC)cc2)c2ccc(OC)cc2)CC1 [Example 94, 2-(N'-n-Heptylureido)-5-dimethylamino-N-[[1-bis(4-methoxyphenyl)methylpiperidin-4yl]methyl]benzamide]",IC50,[1]; [3],100 nM
same,Imax Ex vivo,[2]; [4],28.35%
"CCCCCCCCCCNC(=O)Nc1ccc(N(C)C)cc1C(=O)NCC1CCN(C(c2ccccc2)c2ccccc2)CC1 [Example 80, 2-(N'-n-Decylureido)-5-dimethylamino-N-[(1-diphenylmethylpiperidin-4-yl)methyl]-benzamide]",IC50,[1]; [3],170 nM
"CCCCNC(=O)Nc1ccc(OCC2CC2)cc1C(=O)NCC1CCN(C(c2ccccc2)c2ccccc2)CC1 [Example 69, 2-(N'-n-Butylureido)-5-cyclopropylmethoxy-N-[(1-diphenylmethylpiperidin-4-yl)methyl]-benzamide]",IC50,[1]; [3],30 nM
same,Imax Ex vivo,[2]; [4],40.11%
"CCCCCNC(=O)Nc1ccc(N(C)C)cc1C(=O)NCC1CCN(C(c2ccccc2)c2ccccc2)CC1 [Example 100, 5-Dimethylamino-2-(N'-n-pentylureido)-N-[(1-diphenylmethylpiperidin-4-yl)methyl]benzamide]",IC50,[1]; [3],40 nM
same,Imax Ex vivo,[2]; [4],39.01%
"O=C(NCC1CC1)Nc1ccc(N2CCOCC2)cc1C(=O)NCC1CCN(C(c2ccccc2)c2ccccc2)CC1 [Example 105, 2-(N'-Cyclopropylmethylureido)-5-(morpholin-4-yl)-N-[(1-diphenylmethylpiperidin-4-yl)methyl]benzamide]",IC50,[1]; [3],100 nM
"CCCCCCCNC(=O)Nc1ccc(-n2ccnc2)cc1C(=O)NCC1CCN(C(c2ccccc2)c2ccccc2)CC1 [Example 79, 2(N'-n-Heptylureido)-5-(imidazol-1-yl)-N-[(1-diphenylmethylpiperidin-4-yl)methyl]-benzamide]",IC50,[1]; [3],220 nM
same,Imax Ex vivo,[2]; tested at 100 mg/kg in a suspension of 0.5% CMC-Na (footnote *),63.26%
"CCCCNC(=O)Nc1ccc(-n2ccnc2)cc1C(=O)NCC1CCN(C(c2ccccc2)c2ccccc2)CC1 [Example 64, 2-(N'-n-Butylureido)-5-(imidazol-1-yl)-N-[(1-diphenylmethylpiperidin-4-yl)-methyl]-benzamide]",IC50,[1]; [3],200 nM
same,Imax Ex vivo,[2]; [4],43.14%
"CCCCCCCNC(=O)Nc1ccc(N(C)C)cc1C(=O)NCC1CCCN(C(c2ccccc2)c2ccccc2)C1 (stereo not shown) [Example 89, 2-(N'-n-Heptylureido)-5-dimethylamino-N-[(1-diphenylmethylpiperidin-3-yl)methyl]-benzamide]",IC50,[1]; [3],60 nM
"CCCCCCCNC(=O)Nc1ccc(N(C)C)cc1C(=O)NCC1CCN(Cc2ccccc2-c2ccccc2)CC1 [Example 96, 2-(N'-n-Heptylureido)-5-dimethylamino-N-[1-(2-biphenylmethylpiperidin-4-yl)methyl]-benzamide]",IC50,[1]; [3],80 nM
same,Imax Ex vivo,[2]; [4],20.45%
"CCCCNC(=O)Nc1ccc(N)cc1C(=O)NCC1CCN(C(c2ccccc2)c2ccccc2)CC1 [Example 109, 5-Amino-2-(N'-n-butylureido)-N-[(1-diphenylmethylpiperidin-4-yl)methyl]-benzamide]",IC50,[1]; [3],400 nM
"COCCCNC(=O)Nc1ccc(N(C)C)cc1C(=O)NCC1CCN(C(c2ccccc2)c2ccccc2)CC1 [Example 103, 2-(N'-3-Methoxypropylureido)-5dimethylamino-N-[(1-diphenylmethylpiperidin-4-yl)methyl]benzamide]",IC50,[1]; [3],90 nM
CCCCNC(=O)Nc1ccc([S+](C)[O-])cc1C(=O)NCC1CCN(C(c2ccccc2)c2ccccc2)CC1 (stereo not shown) [111 (a)],IC50,[1]; [3],100 nM
same,Imax Ex vivo,[2]; [4],62.01%
"CCCCNC(=O)Nc1ccc(N2CCCC2)cc1C(=O)NCC1CCN(C(c2ccccc2)c2ccccc2)CC1 [Example 65, 2-(N'-n-Butylureido)-5-(pyrrolidin-1-yl)-N-[(1-diphenylmethylpiperidin-4-yl)methyl]-benzamide]",IC50,[1]; [3],60 nM
same,Imax Ex vivo,[2]; [4],37.43%
"CCCCNC(=O)Nc1ccc(OC)cc1C(=O)NCC1CCN(C(c2ccccc2)c2ccccc2)CC1 [Example 67, 2-(N'-Butylureido)-5-methoxy-N-[(1-diphenylmethylpiperidin-4-yl)methyl]-benzamide]",IC50,[1]; [3],50 nM
same,Imax Ex vivo,[2]; [4],51.97%
"CCCCNC(=O)Nc1ccc(NC)cc1C(=O)NCC1CCN(C(c2ccccc2)c2ccccc2)CC1 [Example 112, 5-Methylamino-2-(N'-n-butylureido)-N-[(1-diphenylmethylpiperidin-4-yl)methyl]benzamide]",IC50,[1]; [3],200 nM
"CCCCCCCNC(=O)Nc1ccc(OCC)cc1C(=O)NCC1CCN(C(c2ccccc2)c2ccccc2)CC1 [Example 86, 5-Ethoxy-2-(N'-n-heptylureido)-N-[(1-diphenylmethylpiperidin-4-yl)methyl]-benzamide]",IC50,[1]; [3],40 nM
"CCCCNC(=O)Nc1ccc(N(CC)CC)cc1C(=O)NCC1CCN(C(c2ccccc2)c2ccccc2)CC1 [Example 62, 2-(N'-n-Butylureido)-5-diethylamino-N-[(1-diphenylmethylpiperidin-4-yl)-methyl]-benzamide]",IC50,[1]; [3],30 nM
same,Imax Ex vivo,[2]; [4],62.57%
"CCCCNC(=O)Nc1ccc(OC(=O)NCCCC)cc1C(=O)NCC1CCN(C(c2ccccc2)c2ccccc2)CC1 [77 (b), 5-n-butylcarbamyloxy-2-(N'-n-butylureido)-N-[(1-diphenylmethylpiperidin-4-yl)methyl]benzamide]",IC50,[1],50 nM
same,Imax Ex vivo,[2]; [4],41.37%
"CCCCNC(=O)Nc1ccc(S(C)(=O)=O)cc1C(=O)NCC1CCN(C(c2ccccc2)c2ccccc2)CC1 [Example 111 (b), 2-(N'-n-butylureido)-5-methylsulfonyl-N-[(1-diphenylmethylpiperidin-4-yl)-methyl]benzamide]",IC50,[1]; [3],90 nM
same,Imax Ex vivo,[2]; [4],63.56%
"CCCCNC(=O)Nc1ccc(OCC)cc1C(=O)NCC1CCN(C(c2ccccc2)c2ccccc2)CC1 [Example 68, 2-(N'-n-Butylureido)-5-ethoxy-N-[(1-diphenylmethylpiperidin-4-yl)methyl]-benzamide]",IC50,[1]; [3],30 nM
same,Imax Ex vivo,[2]; [4],50.51%
"COCCCNC(=O)Nc1ccc(N2CCOCC2)cc1C(=O)NCC1CCN(C(c2ccccc2)c2ccccc2)CC1 [Example 104, 2-(N'-3-Methoxypropylureido)-5-(morpholin-4-yl)-N-[(1-diphenylmethylpiperidin-4-yl)methyl]benzamide]",IC50,[1]; [3],100 nM
"CCCCCCCNC(=O)Nc1ccc(N(CC)CC)cc1C(=O)NCC1CCN(C(c2ccccc2)c2ccccc2)CC1 [Example 87, 5-Diethylamino-2-(N'-n-heptylureido)-N-[(1-diphenylmethylpiperidin-4-yl)-methyl]-benzamide]",IC50,[1]; [3],200 nM
"CCCCCCCNC(=O)Nc1ccc(N(C)C)cc1C(=O)NCC1CCN(C(c2ccc(F)cc2)c2ccc(F)cc2)CC1 [Example 93, 2-(N'-n-Heptylureido)-5-dimethylamino-N-[[1-bis(4-fluorophenyl)methylpiperidin-4-yl]-methyl]benzamide]",IC50,[1]; [3],40 nM
same,Imax Ex vivo,[2]; [4],24.17%
"CCCCCCCNC(=O)Nc1ccc(N2CCCC2)cc1C(=O)NCC1CCN(C(c2ccccc2)c2ccccc2)CC1 [Example 85, 2-(N'-n-Heptylureido)-5-(pyrrolidin-1-yl)-N-[(1-diphenylmethylpiperidin-4-yl)methyl]-benzamide]",IC50,[1]; [3],60 nM
same,Imax Ex vivo,[2]; [4],11.33%
"CCCCCCCNC(=O)Nc1ccc(N2CCCCC2)cc1C(=O)NCC1CCN(C(c2ccccc2)c2ccccc2)CC1 [Example 83, 2-(N'-n-Heptylureido)-5-(piperidin-1-yl)-N-[(1-diphenylmethylpiperidin-4-yl)methyl]benzamide]",IC50,[1]; [3],270 nM
"CCCCCCCNC(=O)Nc1ccc(C(C)C)cc1C(=O)NCC1CCN(C(c2ccccc2)c2ccccc2)CC1 [Example 106, 2-(N'-n-Heptylureido)-5-isopropyl-N-[(1-diphenylmethylpiperidin-4-yl)methyl]benzamide]",IC50,[1]; [3],220 nM
